Experimental findings from patent US20100068197A1, “PHARMACEUTICAL COMPOUNDS AS INHIBITORS OF CELL PROLIFERATION AND THE USE THEREOF” (Myriad Pharmaceuticals, Inc., priority 2008, published 2010) are described below.

Experiment [1] deals with P388 murine leukemia cell line. In words: P388 cytotoxicity, cellular viability by ATP-Lite. The experiment is classed as cell-based. The conditions noted are these: compound concentration required to inhibit growth by 50%, intracellular ATP. The method, then: A P388 murine leukemia cell line was obtained from NCI, Frederick, Md. P388 cells were cultured in RPMI-1640 supplemented with 10% fetal bovine serum, 2 mM Glutamax, 1 mM sodium pyruvate, 0.1 mM non-essential amino acids and 10 mM HEPES. Cells were grown at 37° C. in a humidified 5% CO2 atmosphere. Exponentially growing P388 cells were plated at 5,000 cells/well in a 96-well flat-bottomed microtiter plate (Corning, Costar #3595). […] Cellular viability was determined 72 hours later by measuring intracellular ATP with ATP-Lite assay system. The effect of compounds on cell viability was calculated by comparing the ATP levels of cells exposed to test compound with those of cells exposed to DMSO. A semi-log plot of relative ATP levels versus compound concentration was used to calculate the compound concentration required to inhibit growth by 50% (IC50). Data was analyzed by Prism software (GraphPad; San Diego, Calif.) by fitting it to a sigmoidal dose response curve.

Experiment [2] concerns P388/ADR cell lines (overexpress the multidrug resistance pump MDR-1). As to the kind of experiment: Multidrug resistant cell assay, cell viability by ATP-lite. Type of experiment: cell-based, murine. The source says: Cytotoxicity of compounds in multidrug resistant cells can be determined by administering compounds to cell lines that overexpress the multidrug resistance pump MDR-1 and determining the viability of the cell lines. P388/ADR cell lines are known to overexpress the multidrug resistance pump MDR-1 (also known as P-glycoprotein-1; Pgp-1).
P388/ADR cell lines are obtained from American Type Culture Collection (Manassas, Va.) and maintained in RPMI-1640 media supplemented with 10% FCS, 10 units/mL penicillin and streptomycin, 2 mM Glutamax and 1 mM sodium pyruvate (Invitrogen Corporation, Carlsbad, Calif.). For compound testing, cells are plated in 96 well dishes at a concentration of 1.5×10^4 cells/well. Cells are allowed to adhere to the plate overnight and then incubated with compounds at final concentrations ranging from 0.13 nM to 10 μM for 72 hours. Cell viability is then assessed using the ATP-lite reagent (Perkin Elmer, Foster City, Calif.). Plates are read on a Wallac Topcount luminescence reader (Perkin Elmer, Foster City, Calif.) and the results graphed in Prism software (Graphpad Software, Inc., San Diego, Calif.). Non-linear regression with variable slope analysis is performed to obtain IC50 concentration values.

The mark [3] stands for this setting: Mus musculus, 72 h, multidrug resistant cells overexpressing MDR-1.
The mark [4] stands for this setting: multidrug resistant cells overexpressing MDR-1, 72 hours.

With `COc1ccc(N(C)c2nc(N[C@@H](C)C(=O)OC(C)(C)C)nc3ccccc23)cc1` [Example 28, (S)-2-{4-[(4-Methoxy-phenyl)-methyl-amino]-quinazolin-2-ylamino}-propionic acid tert-butyl ester], the IC50 – broadly, the concentration needed to halve the response being measured – is 0.15 µM in experiment [1] (Mus musculus, P388, 72 h) and 0.17 µM in experiment [2] (setting [3]).
Taken in the same sequence, the figures for `COc1ccc(N(C)c2nc(NCCNCCNCCN)nc3ccccc23)cc1` [Example 4, N^2-{2-[2-(2-Amino-ethylamino)-ethylamino]-ethyl}-N^4-(4-methoxy-phenyl)-N^4-methyl-quinazoline-2,4-diamine] were 0.55 µM and 0.53 µM.
Taken in the same sequence, the figures for `COc1ccc(N(C)c2nc(CNC(=O)[C@H](CC(N)=O)NC(=O)OC(C)(C)C)nc3ccccc23)cc1` [Example 51, [(S)-2-Carbamoyl-1-({4-[(4-methoxy-phenyl)-methyl-amino]-quinazolin-2-ylmethyl}-carbamoyl)-ethyl]-carbamic acid tent-butyl ester] were 0.62 µM and 0.97 µM.
With `COc1ccc(N(C)c2nc(N[C@@H](CO)Cc3ccccc3)nc3ccccc23)cc1` [Example 25, (R)-2-{4-[(4-Methoxy-phenyl)-methyl-amino]-quinazolin-2-ylamino}-3-phenyl-propan-1-ol], the IC50 in experiment [1] (Mus musculus, P388, 72 h) worked out at 1.8 µM; in experiment [2] (setting [3]) it was 1.8 µM.
On to `COc1ccc(N(C)c2nc(NCCNC(=O)CNC(=O)OC(C)(C)C)nc3ccccc23)cc1` [Example 31, [(2-{4-[(4-Methoxy-phenyl)-methyl-amino]-quinazolin-2-ylamino}-ethylcarbamoyl)-methyl]-carbamic acid tert-butyl ester], for which the IC50 amounted to 1.3 µM in experiment [1] (Mus musculus, P388, 72 h) and 1.1 µM in experiment [2] (setting [3]).
For the compound `COc1ccc(N(C)c2nc(NCCNC(=O)OC(C)(C)C)nc3ccc(OC)cc23)cc1` [Example 16, (2-{6-Methoxy-4-[(4-methoxy-phenyl)-methyl-amino]-quinazolin-2-ylamino}-ethyl)-carbamic acid tent-butyl ester], the IC50 was 4 µM in experiment [1] (Mus musculus, P388, 72 h); 2.4 µM in experiment [1] (72 hours); 3.4 µM in experiment [2] (setting [3]); 2 µM in experiment [2] (setting [4]).
In the case of `COc1ccc(N(C)c2nc(N[C@@H](C)C(=O)O)nc3ccccc23)cc1` [Example 36, (S)-2-{4-[(4-Methoxy-phenyl)-methyl-amino]-quinazolin-2-ylamino}-propionic acid], the IC50 amounted to 0.78 µM in experiment [1] (Mus musculus, P388, 72 h) and 0.7 µM in experiment [2] (setting [3]).
In the same order, the values of `COc1ccc(N(C)c2nc(CNC(=O)[C@H](C)NC(=O)OC(C)(C)C)nc3ccccc23)cc1` [Example 50, [(S)-1-({4-[(4-Methoxy-phenyl)-methyl-amino]-quinazolin-2-ylmethyl}-carbamoyl)-ethyl]-carbamic acid tent-butyl ester] are 0.18 µM and 0.19 µM.
Turning to `COc1ccc(N(C)c2nc(NCCCN(C)c3nc(N(C)c4ccc(OC)cc4)c4ccccc4n3)nc3ccccc23)cc1` [Example 48, 3-{4-[(4-Methoxy-phenyl)-methyl-amino]-quinazolin-2-ylamino}-1-({4-[(4-methoxy-phenyl)-methyl-amino]-quinazolin-2-yl}-methyl-amino)-propane], the 50% inhibitory concentration (IC50) in experiment [1] (Mus musculus, P388, 72 h) was 0.07 µM; in experiment [2] (setting [3]), 0.083 µM.
`COc1ccc(N(C)c2nc(NCCNC(N)=O)nc3ccccc23)cc1` [Example 40, (2-{4-[(4-Methoxy-phenyl)-methyl-amino]-quinazolin-2-ylamino}-ethyl)-urea]: the concentration for half-maximal inhibition (IC50) in experiment [1] (Mus musculus, P388, 72 h) was 0.5 µM; in experiment [2] (setting [3]), 0.6 µM.
On to `COc1ccc(N(C)c2nc(CNC(=O)OC(C)OC(=O)C(C)C)nc3ccccc23)cc1` (centres unmarked) [Example 49, Isobutyric acid 1-{4-[(4-methoxy-phenyl)-methyl-amino]-quinazolin-2-ylmethylcarbamoyloxy}-ethyl ester], for which the 50% inhibitory concentration (IC50) in experiment [1] (Mus musculus, P388, 72 h) was 0.0055 µM; in experiment [2] (setting [3]) it was 0.013 µM.
Taken in the same sequence, the figures for `COc1ccc(N(C)c2nc(NCCOP(=O)(O)OC(C)(C)C)nc3ccccc23)cc1` [Example 12, Phosphoric acid tent-butyl ester 2-{4-[(4-methoxy-phenyl)-methyl-amino]-quinazolin-2-ylamino}-ethyl ester] were 3.1 µM and 7.8 µM.
Turning to `COc1ccc(N(C)c2nc(NCCNC(=O)OCc3ccccc3)nc3ccc(OC)cc23)cc1` [Example 17, (2-{6-Methoxy-4-[(4-methoxy-phenyl)-methyl-amino]-quinazolin-2-ylamino}-ethyl)-carbamic acid benzyl ester], the half-maximal inhibitory concentration (IC50) came to 4.5 µM in experiment [1] (Mus musculus, P388, 72 h); 3 µM in experiment [1] (72 hours); 8.5 µM in experiment [2] (setting [3]).
As to `COc1ccc(N(C)c2nc(NCCOC(=O)[C@H](N)Cc3c[nH]c4ccccc34)nc3ccccc23)cc1` [Example 35, (R)-2-Amino-3-(1H-indol-3-yl)-propionic acid 2-{4-[(4-methoxy-phenyl)-methyl-amino]-quinazolin-2-ylamino}-ethyl ester], the IC50 in experiment [1] (Mus musculus, P388, 72 h) was determined as 0.22 µM; in experiment [2] (setting [3]), 0.24 µM.
Taken in the same sequence, the figures for `COc1ccc(N(C)c2nc(NCCOC(=O)[C@@H](N)CCSC)nc3ccccc23)cc1` [Example 27, (S)-2-Amino-4-methylsulfanyl-butyric acid 2-{4-[(4-methoxy-phenyl)-methyl-amino]-quinazolin-2-ylamino}-ethyl ester] were 0.22 µM and 0.22 µM.
Taken in the same sequence, the figures for `COc1ccc(N(C)c2nc(NCCOC(=O)CN)nc3ccccc23)cc1` [Example 13, Amino-acetic acid 2-{4-[(4-methoxy-phenyl)-methyl-amino]-quinazolin-2-ylamino}-ethyl ester] were 0.015 µM and 0.018 µM.
Taken in the same sequence, the figures for `COc1ccc(N(C)c2nc(CNC(=O)OCc3ccccc3)nc3ccccc23)cc1` [Example 47, {4-[(4-Methoxy-phenyl)-methyl-amino]-quinazolin-2-ylmethyl}-carbamic acid benzyl ester] were 0.023 µM and 0.027 µM.
As for `COC(=O)NCCNc1nc(N(C)c2ccc(OC)c(OC)c2)c2ccccc2n1` [Example 21, (2-{4-[(3,4-Dimethoxy-phenyl)-methyl-amino]-quinazolin-2-ylamino}-ethyl)-carbamic acid methyl ester], the IC50 in experiment [1] (Mus musculus, P388, 72 h) was 0.12 µM; in experiment [1] (72 hours), 0.064 µM; in experiment [2] (setting [3]), 0.19 µM; in experiment [2] (setting [4]) it was 0.15 µM.
As to `COc1ccc(N(C)c2nc(CNC(=O)[C@@H](C)NC(=O)OC(C)(C)C)nc3ccccc23)cc1` [Example 53, [(R)-1-({4-[(4-Methoxy-phenyl)-methyl-amino]-quinazolin-2-ylmethyl}-carbamoyl)-ethyl]-carbamic acid tert-butyl ester], the IC50 stood at 0.457 µM in experiment [1] (Mus musculus, P388, 72 h) and 0.68 µM in experiment [2] (setting [3]).
In the same order, the values of `CCOC(=O)C(Nc1nc(N(C)c2ccc(OC)cc2)c2ccccc2n1)C(C)C` (centres unmarked) [Example 32, 2-{4-[(4-Methoxy-phenyl)-methyl-amino]-quinazolin-2-ylamino}-3-methyl-butyric acid ethyl ester] are 0.24 µM and 0.3 µM.
Taken in the same sequence, the figures for `COc1ccc(N(C)c2nc(CNC(=O)Oc3ccccc3)nc3ccc(F)cc23)cc1` [Example 43, {6-Fluoro-4-[(4-methoxy-phenyl)-methyl-amino]-quinazolin-2-ylmethyl}-carbamic acid phenyl ester] were 0.0072 µM and 0.0057 µM.
